Measurements as given in ChEMBL document CHEMBL1201862, “PubChem BioAssay data set” (2004).
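Interpolation was linear, between the two tested concentrations surrounding the appropriate level; five concentrations were tested over 48 hours in 96-well plates. At the GI50, growth is halved.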 Active and inactive are the calls of the source. Rule as the data show it: active = GI50 up to about 1.1 µM and inactive = higher.

What was measured:
Assay in all cases: inhibition of tumour cell growth, NCI panel, 48 h
786-0 = tested on: 786-0
A549 = tested on: A549
DU-145 = tested on: DU-145
HT-29 = tested on: HT-29
Hs-578T = tested on: Hs-578T
IGROV-1 = tested on: IGROV-1
MCF7 = tested on: MCF7
MDA-MB-231 = tested on: MDA-MB-231
Malme-3M = tested on: Malme-3M
NCI-H522 = tested on: NCI-H522
OVCAR-3 = tested on: OVCAR-3
OVCAR-5 = tested on: OVCAR-5
PC-3 = tested on: PC-3
SF-295 = tested on: SF-295
SK-MEL-2 = tested on: SK-MEL-2
SNB-19 = tested on: SNB-19
U-251 = tested on: U-251
UACC-257 = tested on: UACC-257
CCRF-CEM = tested on: CCRF-CEM
HCC 2998 = tested on: HCC 2998

Measured: GI50

c1cc(CCN2CCCCC2)ccn1
inactive: 786-0 > 100 µM | A549 > 100 µM | DU-145 > 100 µM | HT-29 > 100 µM | Hs-578T > 100 µM | IGROV-1 > 100 µM | MCF7 > 100 µM | MDA-MB-231 > 100 µM | Malme-3M > 100 µM | NCI-H522 > 100 µM | OVCAR-3 > 100 µM | OVCAR-5 > 100 µM | PC-3 > 100 µM | SF-295 > 100 µM | SK-MEL-2 > 100 µM | SNB-19 > 100 µM | U-251 > 100 µM | UACC-257 > 100 µM

Cn1c(=O)c2c(nc3n(Cc4ccccc4)c(=O)c(NCCBr)cn23)n(C)c1=O
inactive: 786-0 19.3 µM | A549 29.6 µM | CCRF-CEM 45.5 µM | DU-145 27.8 µM | HCC 2998 16.1 µM | HT-29 41.2 µM | Hs-578T 29 µM | IGROV-1 33 µM | MCF7 24.4 µM | MDA-MB-231 26.5 µM | NCI-H522 22.2 µM | OVCAR-3 19.1 µM | OVCAR-5 28.4 µM | PC-3 20.1 µM | SF-295 21.9 µM | SK-MEL-2 17.2 µM | SNB-19 30.4 µM | U-251 30.4 µM | UACC-257 25.7 µM

Cn1c2c(c3ccccc31)CCN1OCC=C[C@@H](C(=O)O)[C@@H]21
inactive: 786-0 > 100 µM | A549 > 100 µM | DU-145 > 100 µM | HCC 2998 > 100 µM | HT-29 > 100 µM | Hs-578T 31 µM | IGROV-1 > 100 µM | MCF7 > 100 µM | MDA-MB-231 > 100 µM | Malme-3M > 100 µM | NCI-H522 > 100 µM | OVCAR-3 > 100 µM | OVCAR-5 > 100 µM | PC-3 > 100 µM | SK-MEL-2 > 100 µM | SNB-19 > 100 µM | U-251 > 100 µM | UACC-257 > 100 µM

Cc1ccsc1/C=N/Nc1ccccn1
inactive: 786-0 68.5 µM | A549 7.4 µM | CCRF-CEM 40.5 µM | DU-145 55.6 µM | HCC 2998 99.5 µM | HT-29 32.8 µM | Hs-578T > 100 µM | IGROV-1 16.9 µM | MCF7 1.71 µM | MDA-MB-231 50 µM | Malme-3M 34.8 µM | OVCAR-3 47.5 µM | OVCAR-5 > 100 µM | PC-3 39.5 µM | SF-295 > 100 µM | SK-MEL-2 34.3 µM | SNB-19 > 100 µM | U-251 76.6 µM | UACC-257 54.2 µM

CN(/N=C/c1cccs1)c1ccc(Cl)cc1[N+](=O)[O-]
inactive: 786-0 59.6 µM | A549 30.3 µM | CCRF-CEM 19.1 µM | DU-145 64.4 µM | HCC 2998 25.8 µM | HT-29 25.9 µM | Hs-578T 25.4 µM | IGROV-1 > 100 µM | MCF7 18 µM | MDA-MB-231 14.2 µM | NCI-H522 22.6 µM | OVCAR-3 39.8 µM | PC-3 38.4 µM | SF-295 37.7 µM | SNB-19 56.2 µM | U-251 13.7 µM | UACC-257 35.6 µM

Cc1ccc2c(=O)c(-c3nnsn3)c[nH]c2n1
inactive: 786-0 > 100 µM | A549 > 100 µM | CCRF-CEM > 100 µM | DU-145 > 100 µM | HT-29 > 100 µM | Hs-578T > 100 µM | IGROV-1 > 100 µM | MCF7 > 100 µM | MDA-MB-231 > 100 µM | Malme-3M > 100 µM | NCI-H522 > 100 µM | OVCAR-3 > 100 µM | OVCAR-5 > 100 µM | PC-3 > 100 µM | SF-295 > 100 µM | SK-MEL-2 > 100 µM | SNB-19 > 100 µM | U-251 > 100 µM | UACC-257 > 100 µM

Cc1n[n+](CC(=O)c2ccccc2)c2sc(N)nn12
inactive: 786-0 > 100 µM | A549 96.8 µM | CCRF-CEM > 100 µM | DU-145 > 100 µM | HT-29 > 100 µM | Hs-578T > 100 µM | IGROV-1 > 100 µM | MCF7 > 100 µM | MDA-MB-231 > 100 µM | Malme-3M > 100 µM | NCI-H522 > 100 µM | OVCAR-3 > 100 µM | OVCAR-5 > 100 µM | PC-3 > 100 µM | SF-295 > 100 µM | SK-MEL-2 > 100 µM | SNB-19 > 100 µM | U-251 > 100 µM | UACC-257 > 100 µM

CC(=O)Nc1ccc(S(=O)(=O)Nc2nc(-c3ccc(Cl)cc3)cc(N3N=C(c4ccc(Br)cc4)CC3c3ccccc3)n2)cc1 (configuration not stated)
inactive: 786-0 18.8 µM | A549 17.7 µM | CCRF-CEM 26.1 µM | DU-145 20.4 µM | HT-29 15 µM | Hs-578T 11.1 µM | IGROV-1 11.8 µM | MCF7 2.87 µM | MDA-MB-231 13.9 µM | Malme-3M 16.1 µM | NCI-H522 14.8 µM | OVCAR-3 2.06 µM | OVCAR-5 14.3 µM | PC-3 14 µM | SF-295 16.6 µM | SK-MEL-2 14.7 µM | SNB-19 16 µM | U-251 16.8 µM | UACC-257 17.5 µM

Cc1c[n+]([O-])c2ccccc2[n+]1[O-]
inactive: 786-0 > 100 µM | A549 > 100 µM | CCRF-CEM > 100 µM | DU-145 > 100 µM | HT-29 > 100 µM | Hs-578T > 100 µM | IGROV-1 > 100 µM | MCF7 > 100 µM | MDA-MB-231 > 100 µM | Malme-3M > 100 µM | NCI-H522 > 100 µM | OVCAR-3 > 100 µM | OVCAR-5 > 100 µM | PC-3 > 100 µM | SF-295 > 100 µM | SK-MEL-2 > 100 µM | SNB-19 > 100 µM | U-251 > 100 µM | UACC-257 > 100 µM

COc1cc(Oc2c(C)c(Cl)c(OC)c(Cl)c2OC)c2c(c1Cl)COC2=O
inactive: 786-0 17.1 µM | A549 34.4 µM | CCRF-CEM 45.1 µM | DU-145 52.6 µM | HCC 2998 26.6 µM | HT-29 9.23 µM | Hs-578T 54.7 µM | IGROV-1 17.6 µM | MCF7 14.4 µM | MDA-MB-231 24.2 µM | Malme-3M 15.2 µM | NCI-H522 11.5 µM | OVCAR-5 47.1 µM | SF-295 15.6 µM | SNB-19 42.2 µM | U-251 29.8 µM | UACC-257 31.9 µM

O=[N+]([O-])C(=C(Nc1ccccc1)Nc1ccccc1)/C(Cl)=C(\Cl)[N+](=O)[O-]
inactive: 786-0 3.15 µM | A549 10.8 µM | CCRF-CEM 2.86 µM | DU-145 2.65 µM | HCC 2998 12.2 µM | HT-29 3.27 µM | Hs-578T 2.74 µM | MCF7 4.14 µM | MDA-MB-231 3.88 µM | Malme-3M 3.54 µM | OVCAR-3 2.82 µM | OVCAR-5 8.13 µM | PC-3 5.65 µM | SF-295 9.35 µM | SK-MEL-2 9.84 µM | SNB-19 12.9 µM | U-251 4.92 µM | UACC-257 5.97 µM

CC1(CCCC2(C)CCNC2=O)OCCO1 (configuration not stated)
inactive: 786-0 > 10 µM | A549 > 10 µM | CCRF-CEM > 10 µM | DU-145 > 10 µM | HCC 2998 > 10 µM | HT-29 > 10 µM | Hs-578T > 10 µM | IGROV-1 > 10 µM | MCF7 > 10 µM | MDA-MB-231 > 10 µM | Malme-3M > 10 µM | OVCAR-3 > 10 µM | OVCAR-5 > 10 µM | PC-3 > 10 µM | SF-295 > 10 µM | SK-MEL-2 > 10 µM | SNB-19 > 10 µM | U-251 > 10 µM | UACC-257 > 10 µM

CN(C)CCN1C(=O)CC[C@@]2(C)C1=CC[C@@H]1[C@@H]2CC[C@@]2(C)[C@H]1CC[C@]2(C)O
inactive: 786-0 > 100 µM | A549 > 100 µM | CCRF-CEM > 100 µM | DU-145 > 100 µM | HT-29 39.8 µM | Hs-578T > 100 µM | IGROV-1 > 100 µM | MCF7 > 100 µM | MDA-MB-231 > 100 µM | Malme-3M > 100 µM | NCI-H522 > 100 µM | OVCAR-3 > 100 µM | OVCAR-5 > 100 µM | PC-3 > 100 µM | SF-295 > 100 µM | SK-MEL-2 > 100 µM | SNB-19 > 100 µM | U-251 > 100 µM | UACC-257 > 100 µM

C/C1=C\[C@H](C)C[C@H](C)OC(=O)C[C@H](c2ccc(O)cc2)NC(=O)[C@H](Cc2ccc(O)c(Br)c2)N(C)C(=O)[C@H](C)NC(=O)[C@@H](C)C1
inactive: 786-0 > 25 µM | A549 > 25 µM | CCRF-CEM > 25 µM | DU-145 > 25 µM | HT-29 > 25 µM | Hs-578T > 25 µM | IGROV-1 > 25 µM | MCF7 > 25 µM | MDA-MB-231 > 25 µM | Malme-3M > 25 µM | NCI-H522 > 25 µM | OVCAR-3 > 25 µM | OVCAR-5 > 25 µM | PC-3 > 25 µM | SF-295 > 25 µM | SK-MEL-2 > 25 µM | SNB-19 > 25 µM | U-251 > 25 µM

COc1ccc(/C=C2\CN(C)Cc3c2nc(O)c(C#N)c3-c2ccc(OC)cc2)cc1
inactive: 786-0 18.2 µM | A549 44.6 µM | CCRF-CEM 40.5 µM | DU-145 97.5 µM | HT-29 38.5 µM | Hs-578T 35.1 µM | IGROV-1 50 µM | MCF7 16.5 µM | MDA-MB-231 > 100 µM | Malme-3M 12.5 µM | NCI-H522 48.8 µM | OVCAR-3 54.1 µM | OVCAR-5 > 100 µM | PC-3 44.4 µM | SF-295 38.3 µM | SK-MEL-2 94 µM | SNB-19 34.5 µM | U-251 80.2 µM | UACC-257 > 100 µM
